Measurements as given in PMC9585581, “Developing Photoaffinity Probes for Dopamine Receptor D2 to Determine Targets of Parkinson’s Disease Drugs” (ACS Chemical Neuroscience, 2022).

Test system: DRD2-expressing cell line (DRD2-Strep Tag II fusion HEK293T)
Assay: Colocalization analysis via confocal microscopy of photo-cross-linked, dye-clicked probe in cells
Type: cell-based, human
Settings: probe 5 μM, Alexa Fluor 555 azide clicked
Method: After the biochemical characterization of the dynamic interaction between the probe and target, we set out to characterize the static interaction: colocalization of probe and receptor in cells, with an emphasis on both on- and off-target labeling. Specifically, due to the known propensity for photo-cross-linking groups to nonspecifically label, we wanted a holistic view of how the probes interacted with whole cells. Thus, we treated our DRD2-expressing cell line with a 5 μM solution of the probe, photo-cross-linked, “clicked” on an azido fluorophore, and labeled the DRD2 receptor via an antibody conjugated to a complementary fluorophore (Figure 4a). Our results (Figure 4b) indicate that there is indeed background labeling with the probes. […] We therefore proceeded to quantify the specific vs nonspecific binding of the probe.
Figure 4 Photo-cross-linking of dye-clicked probe: confocal microscopy. (a) Schematic of the methodology used in the labeling process. […]
HEK293T cells and a stable HEK293T-derived cell line-expressing DRD2-Strep Tag II fusion were maintained in DMEM supplemented with 10% FBS, 100 U/mL penicillin, and 100 μg/mL streptomycin in a humidified atmosphere at 37 °C in 5% CO2. […] The cells were then washed 3 times with TBS and imaged for Alexa Fluor 488 fluorescence and AF555 fluorescence using a Zeiss LSM 980 with Airyscan 2. […]

| Structure (SMILES) | labeling of DRD2-expressing cells (confocal microscopy) |
| --- | --- |
| C#CCOc1ccc(C(=O)c2ccc(CN[C@H]3CCc4nc(N)sc4C3)cc2)cc1 [Compound 7, (S)-(4-(((2-Amino-4,5,6,7-tetrahydrobenzo[d]thiazol-6-yl)amino)methyl)phenyl)(4-(prop-2-yn-1-yloxy)phenyl)methanone] | higher avidity relative to the other probes |
| C#CCOc1ccc(C(=O)c2ccc(CNCCc3cccc4c3CC(=O)N4)cc2)cc1 [Compound 5, 4-(2-((4-(4-(Prop-2-yn-1-yloxy)benzoyl)benzyl)amino)ethyl)indolin-2-one] | higher avidity relative to the other probes |
